In patent US20070254907A1, “COMPOSITIONS AND METHODS FOR CONTROLLING INFESTATION” (HATCHTECH PTY LTD, priority 2003, published 2007):
“Also recorded” adds a separate entry of the source. Read-outs that look alike come from different tables or passages of the source.

Legend:
[1] = tested on: B. ovis eggs; assay: Egg hatching in Bovicola ovis; assay type: in vivo; details: 10 mM; for Number hatched in different replicates: 10 eggs per replicate; for % Inhibition: in comparison to the controls; for Number unhatched: per replicate
Description: B. ovis eggs were collected from the wool of sheep that were infested with this parasite. The eggs were collected using forceps and with the aid of a dissecting microscope and placed in 24 well tissue culture plates in duplicate lots of 10 eggs per replicate. The eggs were then exposed to either methanol alone (control) or the test compounds for either 10 minutes or 1 minute before being removed from the wells and placed into individual glass vials containing a diet at the base of the tube. The tubes were placed in plastic containers containing a salt solution (to keep humidity constant at 68%) and the containers maintained at a temperature 32° C. The eggs were monitored for hatching over the following 12 days and % hatch inhibition determined in comparison to the controls.

[2] = tested on: lice eggs; assay: whole plant or invertebrate; assay type: in vivo; details: for H (number of eggs successfully hatched) / Ph (number of eggs partly hatched): per replicate, concentration not given
[3] = tested on: Plutella xylostella eggs; assay: Reversal of inhibition of Plutella egg hatching by added FeSO4; assay type: in vivo
Description: (§1) Within 24 hours of collection the following experimental design was chosen. Batches of eggs were exposed to 10 mM 6,6′-dimethyl-2,2′-dipyridyl for 2 seconds while additional batches of eggs were exposed to the solvent only (Methanol) for 2 seconds. All batches of eggs were allowed to air dry for 20 minutes at room temperature. The eggs were then given a 2 second exposure to FeSO4 at either 10, 5 or 1 mM, air dried and put in the incubator at 24° C. and allowed to hatch over the next 6 days. In addition, a positive control of 10 mM 6,6′-dimethyl-2,2′-dipyridyl was set up in which eggs were exposed to this compound for 2 seconds, air dried and placed in the incubator.
as §1, with “10 mM 5,5′-dimethyl-2,2′-dipyridyl for 2” for “10 mM 6,6′-dimethyl-2,2′-dipyridyl for 2”, “FeSO4 at 10, 5” for “FeSO4 at either 10, 5”, “put in an incubator at” for “put in the incubator at”, “of 10 mM, 5,5′-dimethyl-2,2′-dipyridyl was set” for “of 10 mM 6,6′-dimethyl-2,2′-dipyridyl was set”

[4] = tested on: Plutella xylostella eggs; assay: whole plant or invertebrate; assay type: in vivo
Description: The ovicidal efficacy of 2-acetyl-1-tetralone was also tested against Plutella eggs.

[5] = tested on: Lice (L) and Plutella (P) eggs; details: Lice (L) and Plutella (P)
[6] = tested on: Helicoverpa armigera eggs; assay: Egg hatching of Helicoverpa armigera
[7] = 10 mM chelator followed by 2 second exposure to 1 mM FeSO4
[8] = 10 mM chelator followed by 2 second exposure to 5 mM FeSO4
[9] = 10 mM chelator followed by 2 second exposure to 10 mM FeSO4
[10] = 10 mM chelator followed by 2 second exposure to MEOH
[11] = 10 mM chelator, 2 s, (+ve) control without second exposure
[12] = 10 and 1 mM, listed as 6,6′dimethyl-2,2′dipyridyl
[13] = Table 9, 0.001 mM, dipped 2-10 s, day 6 post laying
[14] = Table 9, 0.01 mM, dipped 2-10 s, day 6 post laying
[15] = Table 9, 0.1 mM, dipped 2-10 s, day 6 post laying
[16] = Table 9, 1 mM, dipped 2-10 s, day 6 post laying
[17] = Table 9, 10 mM, dipped 2-10 s, day 6 post laying
[18] = Table 10, eggs laid on cloth, 0.01 mM
[19] = Table 10, eggs laid on cloth, 0.1 mM
[20] = Table 10, eggs laid on cloth, 1 mM
[21] = Table 10, eggs laid on cloth, 10 mM
[22] = Table 11, eggs laid on parafilm, 0.01 mM
[23] = Table 11, eggs laid on parafilm, 0.1 mM
[24] = Table 11, eggs laid on parafilm, 1 mM
[25] = Table 11, eggs laid on parafilm, 10 mM

Cc1cccc(-c2cccc(C)n2)n1 [6,6′-dimethyl-2,2′-dipyridyl]
egg hatching in the louse ([1]; 10 or 1 minute exposure): completely inhibited
Number hatched in different replicates ([1]; 1 minute exposure): Rep 1. 0; also recorded: Rep 2. 0
% Inhibition ([1]; 1 minute exposure): 100%
Number unhatched ([1]; 1 minute exposure): 10
Number hatched in different replicates ([1]; 10 minute exposure): Rep 1. 0; also recorded: Rep 2. 0
% Inhibition ([1]; 10 minute exposure): 100%
Number unhatched ([1]; 10 minute exposure): 10
lice egg hatching ([2]; all time points examined (24-120 hr post egg laying)): completely inhibited
H (number of eggs successfully hatched) ([2]; treated 24 hr post egg laying): 0
Ph (number of eggs partly hatched) ([2]; treated 24 hr post egg laying): 0
H (number of eggs successfully hatched) ([2]; treated 48 hr post egg laying): 0
Ph (number of eggs partly hatched) ([2]; treated 48 hr post egg laying): 0
H (number of eggs successfully hatched) ([2]; treated 72 hr post egg laying): 0
Ph (number of eggs partly hatched) ([2]; treated 72 hr post egg laying): 0
H (number of eggs successfully hatched) ([2]; treated 96 hr post egg laying): 0
Ph (number of eggs partly hatched) ([2]; treated 96 hr post egg laying): 0
H (number of eggs successfully hatched) ([2]; treated 120 hr post egg laying): 0
Ph (number of eggs partly hatched) ([2]; treated 120 hr post egg laying): 0
Number hatched [3, 7]: 33
Number unhatched [3, 7]: 1
% Inhibition ([3]; 10 mM chelator followed by 2 second exposure to 1 mM FeSO4, relative to FeSO4 controls): 3%
Number hatched [3, 8]: 25
Number unhatched [3, 8]: 0
% Inhibition ([3]; 10 mM chelator followed by 2 second exposure to 5 mM FeSO4, relative to FeSO4 controls): 0%
Number hatched [3, 9]: 12
Number unhatched [3, 9]: 19
% Inhibition ([3]; 10 mM chelator followed by 2 second exposure to 10 mM FeSO4, relative to FeSO4 controls): 38%
% Inhibition [3, 10]: 90%
Number hatched [3, 10]: 3
Number unhatched [3, 10]: 28
% Inhibition [3, 11]: 100%
Number hatched [3, 11]: 0
Number unhatched [3, 11]: 44
effect of added Fe in FeSO4 on the chelator's inhibition of egg hatching ([3]; 10 mM chelator, then FeSO4 10, 5 or 1 mM): able to reverse the effects
inhibition of egg hatching after MeOH alone post exposure ([3]; 10 mM chelator, then MeOH): significant degree of inhibition of egg hatching
effect on egg hatching of Plutella xylostella (words) ([4]; 0.1 and 0.01 mM): no observable effects on egg hatching
effect on egg hatching of Plutella xylostella (words) ([4]; 10 and 1 mM, listed as 6,6′-dimethyl-2,2′dipyridyl): effective at inhibiting egg hatching
effect on egg hatching of Plutella xylostella (words) [4, 12]: strong ovicidal effects
Ovicidal activity % ([4]; Plutella (P), 1 mM): 100.00%
Activity class 0 = inactive 1 = low 2 = med 3 = high ([4]; Plutella (P), listed as of 1 mM): 2 (a pLD50 value between 3 and 4 is considered moderately active (Class 2))
Number hatched [4, 13]: 11
Number unhatched [4, 13]: 6
% Inhibition ([4]; Table 9, 0.001 mM, relative to control (100% MeOH)): 0%
Number hatched [4, 14]: 13
Number unhatched [4, 14]: 7
% Inhibition ([4]; Table 9, 0.01 mM, relative to control (100% MeOH)): 0%
Number hatched [4, 15]: 23
Number unhatched [4, 15]: 29
% Inhibition ([4]; Table 9, 0.1 mM, relative to control (100% MeOH)): 0%
Number hatched [4, 16]: 0
Number unhatched [4, 16]: 26
% Inhibition ([4]; Table 9, 1 mM, relative to control (100% MeOH)): 100%
Number hatched [4, 17]: 0
Number unhatched [4, 17]: 79
% Inhibition ([4]; Table 9, 10 mM, relative to control (100% MeOH)): 100%
Number hatched [4, 18]: 23
Number unhatched [4, 18]: 4
% Inhibition ([4]; Table 10, eggs laid on cloth, 0.01 mM, relative to controls): 12%
Number hatched [4, 19]: 49
Number unhatched [4, 19]: 0
% Inhibition ([4]; Table 10, eggs laid on cloth, 0.1 mM, relative to controls): 0%
Number hatched [4, 20]: 0
Number unhatched [4, 20]: 23
% Inhibition ([4]; Table 10, eggs laid on cloth, 1 mM, relative to controls): 100%
Number hatched [4, 21]: 0
Number unhatched [4, 21]: 53
% Inhibition ([4]; Table 10, eggs laid on cloth, 10 mM, relative to controls): 100%
Number hatched [4, 22]: 92
Number unhatched [4, 22]: 1
% Inhibition ([4]; Table 11, eggs laid on parafilm, 0.01 mM, relative to controls): 0%
Number hatched [4, 23]: 65
Number unhatched [4, 23]: 11
% Inhibition ([4]; Table 11, eggs laid on parafilm, 0.1 mM, relative to controls): 7%
Number hatched [4, 24]: 0
Number unhatched [4, 24]: 63
% Inhibition ([4]; Table 11, eggs laid on parafilm, 1 mM, relative to controls): 100%
Number hatched [4, 25]: 0
Number unhatched [4, 25]: 106
% Inhibition ([4]; Table 11, eggs laid on parafilm, 10 mM, relative to controls): 100%
Ovicidal activity % ([5]; 0.1 mM): 0.00%
Ovicidal activity % ([5]; 10 mM): 100.00%
Activity class 0 = inactive 1 = low 2 = med 3 = high ([5]; listed as of 0.1 mM): 2 (a pLD50 value between 3 and 4 is considered moderately active (Class 2))
Activity class 0 = inactive 1 = low 2 = med 3 = high ([5]; listed as of 10 mM): 2 (a pLD50 value between 3 and 4 is considered moderately active (Class 2))
effect on egg hatching of Helicoverpa armigera (words) ([6]; 0.1 mM): no inhibition of egg hatching was observed
effect on egg hatching of Helicoverpa armigera (words) ([6]; 10 and 1 mM): significantly inhibit the egg hatching
effect on egg hatching of Helicoverpa armigera (words) [6, 12]: significantly inhibit egg hatching
% Inhibition ([6]; Table 12, 0.001 mM, relative to control (100% MeOH)): 0%
% Inhibition ([6]; Table 12, 0.01 mM, relative to control (100% MeOH)): 0%
% Inhibition ([6]; Table 12, 0.1 mM, relative to control (100% MeOH)): 0%
Number hatched ([6]; Table 12, 1 mM): 4
Number unhatched ([6]; Table 12, 1 mM): 140
% Inhibition ([6]; Table 12, 1 mM, relative to control (100% MeOH)): 97%
Number hatched ([6]; Table 12, 10 mM): 7
Number unhatched ([6]; Table 12, 10 mM): 98
% Inhibition ([6]; Table 12, 10 mM, relative to control (100% MeOH)): 94%
Number hatched ([6]; Table 13, 0.1 mM): 70
Number unhatched ([6]; Table 13, 0.1 mM): 0
% Inhibition ([6]; Table 13, 0.1 mM, relative to the control (100% MeOH)): 0%
Number hatched ([6]; Table 13, 1 mM): 2
Number unhatched ([6]; Table 13, 1 mM): 61
% Inhibition ([6]; Table 13, 1 mM, relative to the control (100% MeOH)): 97%
Number hatched ([6]; Table 13, 10 mM): 3
Number unhatched ([6]; Table 13, 10 mM): 48
% Inhibition ([6]; Table 13, 10 mM, relative to the control (100% MeOH)): 94%
effect on egg hatching of Helicoverpa armigera (words) ([6]; concentrations below 1 mM): No inhibition was recorded
